Converted amounts (≈) assume the structure as drawn. Read-outs that look alike come from different tables or passages of the source.
Tests used:
[1] = molecular target: T1, full-length beta-Catenin (Uniprot ID P35222) (Homo sapiens, UniProt P35222); assay: Fluorescence polarization IC50 (beta-catenin / 5FAM-TCF4 10-53 competition); type: binding
T1 construct: 10 nM full-length beta-Catenin (Uniprot ID P35222)
T1 sequence (P35222 1-781): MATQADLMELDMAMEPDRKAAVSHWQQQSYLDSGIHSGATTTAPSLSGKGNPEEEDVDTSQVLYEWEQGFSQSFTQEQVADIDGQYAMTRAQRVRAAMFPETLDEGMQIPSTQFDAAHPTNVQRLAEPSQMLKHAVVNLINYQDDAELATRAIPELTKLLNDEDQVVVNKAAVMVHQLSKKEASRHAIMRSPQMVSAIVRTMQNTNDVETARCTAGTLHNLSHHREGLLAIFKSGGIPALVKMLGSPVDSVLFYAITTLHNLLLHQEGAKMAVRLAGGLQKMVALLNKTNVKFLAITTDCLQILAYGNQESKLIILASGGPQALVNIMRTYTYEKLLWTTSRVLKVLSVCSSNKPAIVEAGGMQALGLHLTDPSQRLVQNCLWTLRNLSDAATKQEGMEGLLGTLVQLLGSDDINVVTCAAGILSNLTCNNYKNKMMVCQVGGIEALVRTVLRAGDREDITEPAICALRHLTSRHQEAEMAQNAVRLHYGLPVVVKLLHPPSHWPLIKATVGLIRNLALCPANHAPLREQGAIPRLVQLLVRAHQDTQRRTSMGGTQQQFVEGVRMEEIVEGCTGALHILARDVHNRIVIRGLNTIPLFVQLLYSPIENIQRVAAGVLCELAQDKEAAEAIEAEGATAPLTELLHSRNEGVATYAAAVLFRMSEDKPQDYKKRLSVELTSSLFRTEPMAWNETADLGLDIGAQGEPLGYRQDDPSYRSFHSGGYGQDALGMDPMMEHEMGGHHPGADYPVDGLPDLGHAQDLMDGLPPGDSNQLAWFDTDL

CHI Log D procedure = type: physicochemical; settings: pH 7.4
Solubility in PBS = type: physicochemical
Summary of the method: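 HPLC quantitation of peptide remaining in the PBS supernatant after ultracentrifugation, referenced to a 50 μM solution in DMSO.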

[2] = molecular target: T2, beta-catenin/TCF4 engagement (Homo sapiens, UniProt P35222); assay: Nano-BRET target engagement assay (B-cat-Halo & TCF4-Luc in HEK293 cells); type: cell-based; settings: for IC50: absolute IC50, read-out: NanoBRET Abs IC50
T2 construct: expressed in transfected cells; host or cells: HEK293
T2 sequence (P35222 1-781): T1 sequence (P35222 1-781)

[3] = fluorescence polarization, read-out: beta-Catenin FP IC50

SMILES	IC50 [1, 3] [nM]	IC50 ([1]; read-out: FP EC50) [nM]	CHI Log D (CHI Log D procedure)	Solubility (Solubility in PBS) [µM]	IC50 [2] [µM]	inhibition at 10 µM ([2]; HEK293, @ 10 uM, read-out: NanoBRET % inh @ 10 uM) [%]
CC(=O)N1CCC[C@]12CC=CCCCC1(CCCC=CCCCCCC[C@@](C)(C(=O)N[C@@H](Cc3ccsc3)C(=O)N[C@@H](Cc3csc4ccccc34)C(=O)N[C@@H](CCC(N)=O)C(N)=O)NC(=O)[C@H](CC(N)=O)NC(=O)[C@H](Cc3ccccc3)NC(=O)[C@H](C)NC(=O)[C@H](C)NC(=O)[C@H](CC(=O)O)NC(=O)[C@H](CC(=O)O)NC1=O)NC(=O)[C@H](CC(C)C)NC(=O)[C@H](CC(=O)O)NC2=O (stereo partly drawn) [I-681, Ac-PL3-Asp-Leu-B5-Asp-Asp-Ala-Ala-Phe-Asn-S8-3Thi-BztA-Gln-NH2]	12	12	2.273	48 (≈ 89.3 µg/mL)	25.1	–
CC(=O)N1CCC[C@]12CC=CCCCC1(CCCC=CCCCCCC[C@@](C)(C(=O)N[C@@H](Cc3ccsc3)C(=O)N[C@@H](Cc3csc4ccccc34)C(=O)N[C@@H](CCC(N)=O)C(N)=O)NC(=O)[C@H](CC(N)=O)NC(=O)[C@H](Cc3ccccc3)NC(=O)[C@H](C)NC(=O)[C@H](C)NC(=O)[C@H](CCC(=O)O)NC(=O)[C@H](CC(=O)O)NC1=O)NC(=O)[C@H](CC(C)(C)C)NC(=O)[C@H](CC(=O)O)NC2=O (stereo partly drawn) [I-683, Ac-PL3-Asp-Npg-B5-Asp-Glu-Ala-Ala-Phe-Asn-S8-3Thi-BztA-Gln-NH2]	19	19	2.44	37 (≈ 69.9 µg/mL)	6.7	–
CC(=O)N1CCC[C@]12CC=CCCCC1(CCCC=CCCCOC(=O)N3CC[C@@](C(=O)N[C@@H](Cc4ccccc4)C(=O)N[C@@H](Cc4csc5ccccc45)C(=O)N[C@@H](CCC(N)=O)C(N)=O)(C3)NC(=O)[C@H](CC(N)=O)NC(=O)[C@H](Cc3ccccc3)NC(=O)[C@H](C)NC(=O)[C@H](C)NC(=O)[C@H](CCC(=O)O)NC(=O)[C@H](CC(=O)O)NC1=O)NC(=O)[C@H](CC(C)(C)C)NC(=O)[C@H](CC(=O)O)NC2=O (stereo partly drawn) [I-684, Ac-PL3-Asp-Npg-B5-Asp-Glu-Ala-Ala-Phe-Asn-PyrS2-Phe-BztA-Gln-NH2]	15	15	2.037	44 (≈ 84.8 µg/mL)	14.3	–
CC(=O)N1CCC[C@]12CC=CCCCC1(CCCC=CCCCOC(=O)N3CC[C@@](C(=O)N[C@@H](Cc4ccccc4)C(=O)N[C@@H](Cc4csc5ccccc45)C(=O)N[C@@H](CCC(N)=O)C(N)=O)(C3)NC(=O)[C@H](CC(N)=O)NC(=O)[C@H](Cc3ccccc3)NC(=O)[C@H](C)NC(=O)[C@H](C)NC(=O)[C@H](CCC(=O)O)NC(=O)[C@H](CC(=O)O)NC1=O)NC(=O)[C@H](CC(C)(C)C)NC(=O)[C@H](CC(=O)O)NC2=O (stereo partly drawn) [I-685, Ac-PL3-Asp-Npg-B5-Asp-Glu-Ala-Ala-Phe-Asn-PyrS2-Phe-BztA-Gln-NH2]	25	25	2.1	44 (≈ 84.8 µg/mL)	19.4	–
CC(=O)N1CCC[C@]12CC=CCCCC1(CCCC=CCCCOC(=O)N3CC[C@@](C(=O)N[C@@H](Cc4ccsc4)C(=O)N[C@@H](Cc4csc5ccccc45)C(=O)N[C@@H](CCC(N)=O)C(N)=O)(C3)NC(=O)[C@H](CC(N)=O)NC(=O)[C@H](Cc3ccccc3)NC(=O)[C@H](C)NC(=O)[C@H](C)NC(=O)[C@H](CC(=O)O)NC(=O)[C@H](CC(=O)O)NC1=O)NC(=O)[C@H](CC(C)C)NC(=O)[C@H](CC(=O)O)NC2=O (stereo partly drawn) [I-688, Ac-PL3-Asp-Leu-B5-Asp-Asp-Ala-Ala-Phe-Asn-PyrS2-3Thi-BztA-Gln-NH2]	6	6	1.924	46 (≈ 87.6 µg/mL)	30.1	–
CC(=O)N1CCC[C@]12CC=CCCCC1(CCCC=CCCCOC(=O)N3CC[C@@](C(=O)N[C@@H](Cc4ccsc4)C(=O)N[C@@H](Cc4csc5ccccc45)C(=O)N[C@@H](CCC(N)=O)C(N)=O)(C3)NC(=O)[C@H](CC(N)=O)NC(=O)[C@H](Cc3ccccc3)NC(=O)[C@H](C)NC(=O)[C@H](C)NC(=O)[C@H](CC(=O)O)NC(=O)[C@H](CC(=O)O)NC1=O)NC(=O)[C@H](CC(C)C)NC(=O)[C@H](CC(=O)O)NC2=O (stereo partly drawn) [I-689, Ac-PL3-Asp-Leu-B5-Asp-Asp-Ala-Ala-Phe-Asn-PyrS2-3Thi-BztA-Gln-NH2]	11	11	1.957	50 (≈ 95.2 µg/mL)	33.9	–
CC(=O)N1CCC[C@]12CC=CCCCC1(CCCC=CCCCOC(=O)N3CC[C@@](C(=O)N[C@@H](Cc4ccsc4)C(=O)N[C@@H](Cc4csc5ccccc45)C(=O)N[C@@H](CCC(N)=O)C(N)=O)(C3)NC(=O)[C@H](CC(N)=O)NC(=O)[C@H](Cc3ccccc3)NC(=O)[C@H](C)NC(=O)[C@H](C)NC(=O)[C@H](CCC(=O)O)NC(=O)[C@H](CC(=O)O)NC1=O)NC(=O)[C@H](CC(C)(C)C)NC(=O)[C@H](CC(=O)O)NC2=O (stereo partly drawn) [I-690, Ac-PL3-Asp-Npg-B5-Asp-Glu-Ala-Ala-Phe-Asn-PyrS2-3Thi-BztA-Gln-NH2]	7	7	2.013	44 (≈ 85 µg/mL)	17.8	–
CC(=O)N1CCC[C@]12CC=CCCCC1(CCCC=CCCCOC(=O)N3CC[C@@](C(=O)N[C@@H](Cc4ccsc4)C(=O)N[C@@H](Cc4csc5ccccc45)C(=O)N[C@@H](CCC(N)=O)C(N)=O)(C3)NC(=O)[C@H](CC(N)=O)NC(=O)[C@H](Cc3ccccc3)NC(=O)[C@H](C)NC(=O)[C@H](C)NC(=O)[C@H](CCC(=O)O)NC(=O)[C@H](CC(=O)O)NC1=O)NC(=O)[C@H](CC(C)(C)C)NC(=O)[C@H](CC(=O)O)NC2=O (stereo partly drawn) [I-691, Ac-PL3-Asp-Npg-B5-Asp-Glu-Ala-Ala-Phe-Asn-PyrS2-3Thi-BztA-Gln-NH2]	9	9	2.068	45 (≈ 86.9 µg/mL)	17	–
CC(=O)N1CCC[C@]12CC=CCCCC1(CCCC=CCCCOC(=O)N3CC[C@@](C(=O)N[C@@H](Cc4ccccc4)C(=O)N[C@@H](Cc4csc5ccccc45)C(=O)N[C@@H](Cc4c[nH]cn4)C(N)=O)(C3)NC(=O)[C@H](CC(N)=O)NC(=O)[C@H](Cc3ccccc3)NC(=O)[C@H](C)NC(=O)[C@H](C)NC(=O)[C@H](CCC(=O)O)NC(=O)[C@H](CC(=O)O)NC1=O)NC(=O)[C@H](CC(C)(C)C)NC(=O)[C@H](CC(=O)O)NC2=O (stereo partly drawn) [I-692, Ac-PL3-Asp-Npg-B5-Asp-Glu-Ala-Ala-Phe-Asn-PyrS2-Phe-BztA-His-NH2]	9	9	2.12	38 (≈ 73.5 µg/mL)	25.6	–
CC(=O)N1CCC[C@]12CC=CCCCC1(CCCC=CCCCOC(=O)N3CC[C@@](C(=O)N[C@@H](Cc4ccccc4)C(=O)N[C@@H](Cc4csc5ccccc45)C(=O)N[C@@H](Cc4c[nH]cn4)C(N)=O)(C3)NC(=O)[C@H](CC(N)=O)NC(=O)[C@H](Cc3ccccc3)NC(=O)[C@H](C)NC(=O)[C@H](C)NC(=O)[C@H](CCC(=O)O)NC(=O)[C@H](CC(=O)O)NC1=O)NC(=O)[C@H](CC(C)(C)C)NC(=O)[C@H](CC(=O)O)NC2=O (stereo partly drawn) [I-693, Ac-PL3-Asp-Npg-B5-Asp-Glu-Ala-Ala-Phe-Asn-PyrS2-Phe-BztA-His-NH2]	12	12	2.184	34 (≈ 65.8 µg/mL)	28.5	–
CC(=O)N1CCC[C@]12CC=CCCCC1(CCCC=CCCCOC(=O)N3CC[C@@](C(=O)N[C@@H](Cc4ccsc4)C(=O)N[C@@H](Cc4csc5ccccc45)C(=O)N[C@@H](Cc4c[nH]cn4)C(N)=O)(C3)NC(=O)[C@H](CC(N)=O)NC(=O)[C@H](Cc3ccccc3)NC(=O)[C@H](C)NC(=O)[C@H](C)NC(=O)[C@H](CC(=O)O)NC(=O)[C@H](CC(=O)O)NC1=O)NC(=O)[C@H](CC(C)(C)C)NC(=O)[C@H](CC(=O)O)NC2=O (stereo partly drawn) [I-694, Ac-PL3-Asp-Npg-B5-Asp-Asp-Ala-Ala-Phe-Asn-PyrS2-3Thi-BztA-His-NH2]	5	–	2.073	40 (≈ 77.1 µg/mL)	–	32.7

Source: patent US20240116985A1, “STAPLED PEPTIDES AND METHODS THEREOF” (priority 2020, published 2024)
